# Test results as given in patent US9540389B2, “Antimicrobial potentiators” (priority 2013, dated 2017).
# Columns and labels:
# [1] = system: E. coli AB1157; test: Time-kill assay (CIP and/or EPI); format: cell-based, Escherichia coli
# Method: (§1) Panel (C): Bactericidal activity of CIP alone, 25 μM MBX2319 alone, or 25 μM MBX2319 combined with a bacteriostatic concentration of CIP against E. coli AB1157 and isogenic efflux defective mutants after 2 hours exposure. […] Panel (D): Bactericidal activity of CIP alone, 25 μM MBX2319 alone, 25 μM PAβN alone, and a bacteriostatic concentration of CIP combined with 25 μM MBX2319 or combined with 25 μM PAβN against the following organisms: a) E. coli AB1157, b) E. coli ATCC 25922, c) K. pneumoniae ATCC 700603, d) S. flexneri ATCC 12022, e) S. enterica ATCC 14028, f) E. aerogenes ATCC 13048.
# (§2) • Strains and Reagents. The following strains were obtained from the Keio collection (Baba, et al.: Construction of Escherichia coli K-12 in-frame, single-gene knockout mutants: the Keio collection. In Mol Syst Biol, vol. 2, pp. 2006 0008, (2006)): JW0451 (ΔacrB::kan), JW5503 (ΔtolC::kan), JW3234 (ΔacrF::kan), JW2661 (ΔemrB::kan), JW0863 (ΔmacB::kan). The deletion mutations in each of these strains were transferred to AB1157 using P1 phage transduction (see Table 1). The construction of the E. coli cell-based reporter strain (SOS-XXX) that was used for high throughput screening is described in detail in the supplementary information. […] Irgasan was a generous gift from Ciba Speciality Chemicals, Inc. (High Point, N.C.). Hoechst 33342 (H33342) was purchased from Molecular Probes (Eugene, Oreg.). […] Luria Broth (Miller) and agar were purchased as prepared dehydrated media from Becton Dickenson (Franklin Lakes, N.J.). The compound libraries used in high-throughput screens were purchased from Chembridge (San Diego, Calif.), ChemDiv (San Diego, Calif.), and TimTec (Newark, Del.). MBX2319 was synthesized by Microbiotix, Inc. • Antibacterial Activity Assays. The minimal inhibitory concentration (MIC) of antibacterial agents and biocides were determined using the microbroth dilution method essentially as described in the CLSI protocol M7-A7 (CLSI: Method for dilution antimicrobial susceptibility testing for bacteria that grow aerobically; Approved standard-document M7-A7. In Clinical and Laboratory Standards Institute document M7-A7, Clinical and Laboratory Standards Institute, Wayne, Pa., (2006)), with the following exceptions. LB media was used instead of MHB. […] The final concentration of DMSO in each assay was 2%. […] MIC assays were performed in triplicate and the geometric mean was calculated. […] Viability was monitored over 2-4 hours by making serial dilutions in saline and spotting 5 μl of each dilution onto the surface of an LB agar plate in triplicate. Colonies were counted after the plates were incubated at 37° C. for 16-18 hr, colony forming units (CFU) per ml were calculated, and the average and standard deviation for the three replicates was determined. […]
# [2] = system: E. coli AB1157 ΔacrF; test: Time-kill assay (CIP and/or EPI); format: cell-based, Escherichia coli; conditions: 25 μM MBX2319 + 1×MIC CIP, 2 hours
# Method: as §1, §2
# [3] = H33342 accumulation assay; format: cell-based, Pseudomonas aeruginosa ATCC 27835; conditions: P. aeruginosa; 25 μM
# [4] = biological target: AcrAB-TolC efflux pump (Escherichia coli, UniProt P31224); test: H33342 accumulation assay; format: cell-based, Escherichia coli 285; set-up: endogenous in cells; host or cells: E. coli strains 285 and 287 (ciprofloxacin-resistant mutants of AB1157); conditions: hyper-efflux strain 285
# Chain of AcrAB-TolC efflux pump (P31224 whole entry): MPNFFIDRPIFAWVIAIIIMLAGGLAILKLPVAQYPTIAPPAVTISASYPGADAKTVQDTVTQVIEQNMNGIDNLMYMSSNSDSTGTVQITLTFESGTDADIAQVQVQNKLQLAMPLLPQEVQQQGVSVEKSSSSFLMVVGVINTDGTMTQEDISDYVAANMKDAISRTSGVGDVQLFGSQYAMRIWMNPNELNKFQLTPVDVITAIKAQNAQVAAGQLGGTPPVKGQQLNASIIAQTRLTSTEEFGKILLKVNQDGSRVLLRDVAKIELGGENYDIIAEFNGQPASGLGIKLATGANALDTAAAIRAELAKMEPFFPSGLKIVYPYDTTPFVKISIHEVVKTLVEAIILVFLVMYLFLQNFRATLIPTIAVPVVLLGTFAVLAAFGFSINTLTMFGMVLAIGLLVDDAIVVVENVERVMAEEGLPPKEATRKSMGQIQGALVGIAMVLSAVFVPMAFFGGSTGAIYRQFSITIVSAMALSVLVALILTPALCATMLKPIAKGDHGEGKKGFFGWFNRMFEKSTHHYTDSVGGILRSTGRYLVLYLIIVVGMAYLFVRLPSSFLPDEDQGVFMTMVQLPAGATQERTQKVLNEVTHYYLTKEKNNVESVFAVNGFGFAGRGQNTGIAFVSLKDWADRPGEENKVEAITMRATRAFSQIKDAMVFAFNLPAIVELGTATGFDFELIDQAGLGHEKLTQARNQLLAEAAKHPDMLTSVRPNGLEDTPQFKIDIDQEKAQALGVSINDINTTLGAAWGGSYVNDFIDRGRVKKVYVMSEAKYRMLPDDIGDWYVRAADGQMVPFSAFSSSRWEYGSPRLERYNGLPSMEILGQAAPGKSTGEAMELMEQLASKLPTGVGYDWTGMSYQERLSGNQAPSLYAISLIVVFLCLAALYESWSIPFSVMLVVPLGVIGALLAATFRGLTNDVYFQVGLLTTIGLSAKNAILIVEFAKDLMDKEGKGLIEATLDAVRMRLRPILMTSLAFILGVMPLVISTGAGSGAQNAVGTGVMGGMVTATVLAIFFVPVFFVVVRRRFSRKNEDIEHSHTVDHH
# Chain of AcrAB-TolC efflux pump (P0AE06 25-397, further chain): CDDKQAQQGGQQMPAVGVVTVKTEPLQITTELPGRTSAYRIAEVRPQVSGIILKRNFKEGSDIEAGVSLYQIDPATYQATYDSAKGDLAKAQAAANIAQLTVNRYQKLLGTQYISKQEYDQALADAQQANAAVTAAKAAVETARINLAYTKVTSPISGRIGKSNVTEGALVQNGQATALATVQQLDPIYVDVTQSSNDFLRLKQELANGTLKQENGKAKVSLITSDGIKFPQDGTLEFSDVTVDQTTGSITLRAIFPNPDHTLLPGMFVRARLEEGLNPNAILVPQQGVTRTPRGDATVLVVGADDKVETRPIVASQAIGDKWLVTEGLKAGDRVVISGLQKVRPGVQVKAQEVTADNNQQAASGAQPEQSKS
# Chain of AcrAB-TolC efflux pump (P02930 23-493, further chain): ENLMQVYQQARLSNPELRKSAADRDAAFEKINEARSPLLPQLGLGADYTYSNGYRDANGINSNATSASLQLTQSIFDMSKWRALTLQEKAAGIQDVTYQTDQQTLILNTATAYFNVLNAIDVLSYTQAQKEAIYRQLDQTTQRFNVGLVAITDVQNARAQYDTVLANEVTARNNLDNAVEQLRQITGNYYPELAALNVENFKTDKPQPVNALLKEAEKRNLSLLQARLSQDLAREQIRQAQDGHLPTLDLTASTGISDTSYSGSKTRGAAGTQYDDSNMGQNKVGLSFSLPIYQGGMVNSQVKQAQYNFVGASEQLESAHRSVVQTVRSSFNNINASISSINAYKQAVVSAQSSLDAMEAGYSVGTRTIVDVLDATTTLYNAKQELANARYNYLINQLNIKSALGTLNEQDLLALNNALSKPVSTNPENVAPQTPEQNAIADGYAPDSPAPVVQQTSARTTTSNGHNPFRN
# [5] = system: E. aerogenes ATCC 13048; test: Time-kill assay (CIP and/or EPI); format: cell-based; conditions: Enterobacter aerogenes; 25 μM EPI + CIP 0.5 or 1×MIC
# Method: as §1
# (§3) • Strains and Reagents. The following strains were obtained from the Keio collection (Baba, et al.: Construction of Escherichia coli K-12 in-frame, single-gene knockout mutants: the Keio collection. In Mol Syst Biol, vol. 2, pp. 2006 0008, (2006)): JW0451 (ΔacrB::kan), JW5503 (ΔtolC::kan), JW3234 (ΔacrF::kan), JW2661 (ΔemrB::kan), JW0863 (ΔmacB::kan). The deletion mutations in each of these strains were transferred to AB1157 using P1 phage transduction (see Table 1). […] The minimal inhibitory concentration (MIC) of antibacterial agents and biocides were determined using the microbroth dilution method essentially as described in the CLSI protocol M7-A7 (CLSI: Method for dilution antimicrobial susceptibility testing for bacteria that grow aerobically; Approved standard-document M7-A7. In Clinical and Laboratory Standards Institute document M7-A7, Clinical and Laboratory Standards Institute, Wayne, Pa., (2006)), with the following exceptions. […] MIC assays were performed in triplicate and the geometric mean was calculated. […] Viability was monitored over 2-4 hours by making serial dilutions in saline and spotting 5 μl of each dilution onto the surface of an LB agar plate in triplicate. Colonies were counted after the plates were incubated at 37° C. for 16-18 hr, colony forming units (CFU) per ml were calculated, and the average and standard deviation for the three replicates was determined. […]
# [6] = system: K. pneumoniae ATCC 700603; test: Time-kill assay (CIP and/or EPI); format: cell-based; conditions: Klebsiella pneumoniae; 25 μM EPI + CIP 0.5 or 1×MIC
# Method: as §1, §3
# [7] = system: S. enterica ATCC 14028; test: Time-kill assay (CIP and/or EPI); format: cell-based; conditions: Salmonella enterica; 25 μM EPI + CIP 0.5 or 1×MIC
# Method: as §1, §3
# [8] = Solubility in phosphate buffers; format: physicochemical; conditions: phosphate buffer, aqueous buffer, read-out: solubility limit
compound,measurement,setting,value
CC1(C)Cc2c(C#N)c(SCCc3ccccc3)nc(N3CCOCC3)c2CO1 [MBX2319],decreased viability (CFU/ml) as compared to 1×MIC CIP alone,"[1]; 3.13 μM MBX2319 + […] CIP, 4 hr exposure","10,000 fold"
same,effect on bactericidal activity of […] CIP (1×MIC),"[1]; MBX2319 up to 3.13 μM, dose-dependent, PAβN as high as 100 μM",increased the bactericidal activity
same,"effect on growth, compound alone",[1]; alone at concentrations up to 50 μM,did not affect growth
same,potentiation of the bactericidal activity of CIP,[2],potentiated the bactericidal activity of CIP
same,H33342 accumulation,[3],weak activity
same,H33342 accumulation,[4],increased H33342 accumulation
same,decreased viability as compared to CIP alone,[5],100-1000 fold
same,decreased viability as compared to CIP alone,[6],100-1000 fold
same,decreased viability as compared to CIP alone,[7],100-1000 fold
same,solubility,[8],15 to 20 µM
